What was measured:
[1] = test system: phenylquinone-induced stretching or writhing syndrome; experiment: Phenylquinone writhing test, oral, female white mice (modified from Siegmund et al.); type: in vivo; details: for analgesic activity of the optical isomers, in words: dextro and laevo forms; for ED50 (optical isomers, phenylquinone writhing test described in Example A): optical isomers of N-methyl-4a-phenyl-trans-decahydroisoquinoline, mice, test as in Example A; for ED50: Mus musculus, po, suspended in 1% Methocel, fasted female white mice, phenylquinone i.p. 23 or 30 min later, observed 10 min, moving average method, read-out: oral ED50 (effective analgesic dose for 50% of the mice)
Method: In a standard mouse test modified from Siegmund et al. [Proc. Soc. Exp. Biol. Med. 95, 729 (1957)], a test compound suspended in 1% Methocel® was given orally to fasted (17-21 hours) female white mice, 5-20 animals per double blind test. Aqueous (0.01%) phenyl-p-benzoquinone (phenylquinone) was injected intraperitoneally at 23 or 30 minutes later using 0.25 ml per mouse. […] The effective analgesic dose for 50% of the mice (ED50) was calculated by the moving average method of Weil [Biometrics 8, 249 (1952)].The oral ED50 dosages of several compounds of the invention are: […]

Straub tail = Straub tail in mice; type: in vivo; details: dose not stated
Description: Included in this group are the compounds of examples 9, 10, 16 and 18.

[2] = J. Am. Chem. Soc. 72, 712 (1950); cited from earlier work

SMILES | ED50 [1] [mg/kg] | Straub tail in mice (evidence for appearing to be nonaddicting) (Straub tail) | other results
CN1CC[C@@]2(c3ccccc3)CCCC[C@@H]2C1 (relative stereo) [Dextro (Ex. 2H-2), dextro-N-Methyl-4a-phenyl-trans-decahydroisoquinoline] |  |  | analgesic activity of the optical isomers, in words ([1]; phenylquinone writhing test): active; analgesic effectiveness of dextro form compared with laevo form ([1]; dextro vs laevo form, phenylquinone writhing test): significantly more effective than the laevo form; ED50 (optical isomers, phenylquinone writhing test described in Example A) [1]: 3.5 mg/kg
COc1cccc([C@@]23CCCC[C@H]2CN(C)CC3)c1 (relative stereo) [Example 3-E, N-Methyl-4a-(m-methoxyphenyl)-trans-decahydroisoquinoline] | 3 |  | 
CN1CC[C@]2(c3cccc(O)c3)CCCC[C@H]2C1 (relative stereo) [Example 4, N-methyl-4a-(m-hydroxyphenyl)-trans-decahydroisoquinoline] | 2.3 |  | 
COc1cccc([C@@]23CCCC[C@H]2CN(CC2CC2)CC3)c1 (relative stereo) [Example 9, N-Cyclopropylmethyl-4a-(m-methoxyphenyl)-trans-decahydroisoquinoline] | 8 | do not produce the Straub tail | 
Oc1cccc([C@@]23CCCC[C@H]2CN(CC2CC2)CC3)c1 (relative stereo) [Example 10, N-Cyclopropylmethyl-4a-(m-hydroxyphenyl)-trans-decahydroisoquinoline] |  | do not produce the Straub tail | 
CCCCCCN1CC[C@]2(c3cccc(O)c3)CCCC[C@H]2C1 (relative stereo) [Example 16, N-(n-Hexyl)-4a-(m-hydroxyphenyl)-trans-decahydroisoquinoline] |  | do not produce the Straub tail | 
CN1CC[C@@]2(c3ccccc3)CCCC[C@@H]2C1 (relative stereo) [Laevo (Ex. 2H-1), laevo-N-Methyl-4a-phenyl-trans-decahydroisoquinoline] |  |  | analgesic activity of the optical isomers, in words ([1]; phenylquinone writhing test): active; ED50 (optical isomers, phenylquinone writhing test described in Example A) [1]: 23.0 mg/kg
CN1CC[C@]2(c3ccccc3)CCCC[C@@H]2C1 (relative stereo) [N-methyl-4a-phenyl-cis-decahydroisoquinoline] |  |  | analgesic activity [2]: low analgesic activity
COc1cccc(C23CCN(CC4CC4)CC2CCC(C)C3)c1 (stereo not drawn) [Example 18, N-cyclopropylmethyl-4a-(m-methoxyphenyl)-6-methyl-trans-decahydroisoquinoline] |  | do not produce the Straub tail | 

Reference: patent US4419517A, “4a-Aryl-trans-decahydroisoquinolines” (E. I. Du Pont de Nemours & Co., priority 1975, dated 1983)
